Experiments:
Candida albicans = assay: Antimicrobial action, microbe count (Example 6); format: cell-based; settings: conc. 0.5%; for Δlog: t24 h
Description: (§1) For sample preparation, the substances being investigated are each dissolved or homogeneously dispersed in an amount of 1.0% in a water/ethanol mixture (12% of ethanol) (=sample). A bacteria suspension of S. epidermidis (ATCC 12228) having an optical density of 1.0 in CASO broth (Merck 1.05459) is diluted 1:10000 with CASO broth. 500 μl of sample are added to 500 μl of bacteria suspension, and the mixture is incubated at 35° C. for 24 h. After the incubation, the test batches are diluted to −6 in 10 unit steps, and 0.1 ml of each is plated-out on CASO agar (Merck 1.05458) and incubated at 35° C. for 24 h.
(§2) In order to determine the initial microbe count, 0.1 ml of the bacteria suspension used are plated-out on CASO agar (Merck 1.05458) and incubated at 35° C. for 24 h.
(§3) The colonies are subsequently counted, and the microbe count per ml is determined compared with the negative control (12% of ethanol in water).
(§4) The procedure corresponds to that described in Examples 4 and 5 using the microorganisms shown below. The concentrations indicated are the final use concentrations. In order to prepare the stock solution, double the final concentration were prepared in the solvent indicated. This was subsequently diluted 1:2 with the corresponding microbe suspension. In the case of Aspergillus brasiliensis, the microbe count determination was exceptionally carried out after 48 h.

Corynebacterium xerosis = assay: Antimicrobial action, microbe count (Example 6); format: cell-based; settings: conc. 0.5%, H2O (12% of ethanol), count t0 3.5 × 10^4
Description: (§5) For sample preparation, the substances being investigated are each dissolved or homogeneously dispersed in an amount of 1.0% in a water/ethanol mixture (12% of ethanol) and subsequently diluted with bacteria suspension in the ratio 1 to 2. P. acnes (ATCC 6919) is pre-incubated under anaerobic conditions for 48 h at 35° C. on RMC agar (Merck 1.05410). A bacteria suspension having an optical density (OD) of about 1.5 is subsequently prepared in RMC broth (Merck 1.05411, double-concentrated). 150 μl of freshly prepared sample and 100 μl of paraffin are added to 150 μl of bacteria suspension per well. The optical density is determined over the course of time at 37° C. using a Bioscreen C™ analyser compared with the negative control (=vehicle without test substance). Compared with the negative control, reduced optical densities confirm growth-inhibiting substance actions.
as §1, §2, §3, §4

Echerichia coli = assay: Antimicrobial action, microbe count (Example 6); format: cell-based; settings: conc. 0.5%, H2O (12% of ethanol), count t0 4.6 × 10^4
Description: as §5, §1, §2, §3, §4

[1] = test system: Staphylococcus epidermidis; assay: Antimicrobial action, microbe count (Example 6); format: cell-based; settings: conc. 0.5%, H2O (12% of ethanol), count t0 3.4 × 10^4
Description: as §5, §1, §2, §3, §4

Propionibacterium acnes = assay: Antimicrobial action, microbe count (Example 6); format: cell-based; settings: conc. 0.5%, H2O (12% of ethanol), count t0 2.0 × 10^4
Description: as §5, §1, §2, §3, §4

Aspergillus brasiliensis = assay: Antimicrobial action, microbe count (Example 6); format: cell-based; settings: conc. 0.5%, H2O (12% of ethanol), count t0 2.0 × 10^4
Description: as §5, §1, §2, §3, §4

Serratia marcescens = assay: Antimicrobial action, microbe count (Example 6); format: cell-based; settings: conc. 0.5%; for Δlog: t24 h
Description: as §5, §1, §2, §3, §4

Pseudomonas aeruginosa = assay: Antimicrobial action, microbe count (Example 6); format: cell-based; settings: conc. 0.5%, H2O (12% of ethanol), count t0 6.8 × 10^4
Description: as §5, §1, §2, §3, §4

Salmonella enterica = assay: Antimicrobial action, microbe count (Example 6); format: cell-based; settings: conc. 0.5%; for Δlog: t24 h
Description: as §5, §1, §2, §3, §4

Malassezia furfur = assay: Antimicrobial action, microbe count (Example 6); format: cell-based; settings: conc. 1.0%, H2O, count t0 4.0 × 10^2
Description: as §5, §1, §2, §3, §4

[2] = test system: S. epidermidis (ATCC 12228); assay: Microbe count determination, bacteriostatic or bactericidal action (Example 5); format: cell-based, Staphylococcus epidermidis; settings: 24 h at 35° C.
Description: as §1, §2, §3

P. acnes (ATCC 6919) = assay: Growth inhibition by optical density, Bioscreen C (Example 4); format: cell-based, Propionibacterium acnes; settings: 1.0% sample in water/ethanol (12% of ethanol) diluted 1 to 2 with bacteria suspension; 37° C.; negative control 1.0
Description: as §5
(§6) Result as optical density of the bacteria suspension after an exposure time of 20 hours: […]

[3] = test system: S. epidermidis (ATCC 12228); assay: Growth inhibition by optical density, Bioscreen C (Example 3); format: cell-based, Staphylococcus epidermidis; settings: 1st experiment; 1.0% sample in water/ethanol (12% of ethanol) diluted 1 to 2 with bacteria suspension; 37° C.; negative control 0.80
Description: For sample preparation, the substances being investigated are each dissolved or homogeneously dispersed in an amount of 1.0% in a water/ethanol mixture (12% of ethanol) and subsequently diluted with bacteria suspension in the ratio 1 to 2. S. epidermidis (ATCC 12228) is pre-incubated under aerobic conditions for 24 h at 35° C. on CASO agar (Merck 1.05458). A bacteria suspension having an optical density (OD) of about 1.0 is subsequently prepared in CASO broth (Merck 1.05459, double-concentrated) and diluted again 1:10 in CASO broth. 150 μl of freshly prepared sample are added to 150 μl of bacteria suspension per well. The optical density is determined over the course of time at 37° C. using a Bioscreen C™ analyser compared with the negative control (=vehicle without test substance). Compared with the negative control, reduced optical densities confirm growth-inhibiting substance actions
as §6

[4] = Densities and viscosities, Ubbelohde viscometer, to estimate spreadability (Example 10); format: physicochemical; settings: 25° C.
Description: Measurement of the Dynamic Viscosities in Order to Estimate the Spreadability at 25° C. After measurement of the densities and kinematic viscosities using an Ubbelohde viscometer, the following dynamic viscosities arise: Since spreadabilities and viscosities of cosmetic emollients correlate well, good spreadabilities can be concluded from the viscosities determined.

[5] = H2O (12% of ethanol), count t0 3.4 × 10^4
[6] = H2O (12% of ethanol), count t0 6.8 × 10^4
[7] = H2O (12% of ethanol), count t0 6.0 × 10^4

## CCOC(=O)C1CCCCC1O (stereo not drawn) [Substance I-2]
Candida albicans; [5]
  Microbe count t24 h: 3.0 × 10^2
  Δlog: −2.05
Candida albicans; H2O, count t0 3.8 × 10^5
  Microbe count t24 h: 2.5 × 10^5
  Δlog: −0.18
Corynebacterium xerosis
  Microbe count t24 h: 0
Corynebacterium xerosis; t24 h
  Δlog: −4.54
Echerichia coli
  Microbe count t24 h: 1.8 × 10^3
Echerichia coli; t24 h
  Δlog: −1.41
[1]
  Microbe count t24 h: 2.0 × 10^4
[1]; t24 h
  Δlog: −0.23
Propionibacterium acnes
  Microbe count t24 h: 1.2 × 10^4
Propionibacterium acnes; t24 h
  Δlog: −0.22
Aspergillus brasiliensis; count after 48 h
  Δlog: −0.30
Aspergillus brasiliensis; count carried out after 48 h
  Microbe count t24 h: 1.0 × 10^4
Serratia marcescens; [6]
  Microbe count t24 h: 0
  Δlog: −3.83
Serratia marcescens; H2O, count t0 2.9 × 10^5
  Microbe count t24 h: 9.0 × 10^5
  Δlog: +0.49
Pseudomonas aeruginosa
  Microbe count t24 h: 0
Pseudomonas aeruginosa; t24 h
  Δlog: −4.83
Salmonella enterica; [7]
  Microbe count t24 h: 0
  Δlog: −4.78
Salmonella enterica; H2O, count t0 1.0 × 10^6
  Microbe count t24 h: 5.0 × 10^4
  Δlog: −1.30
Malassezia furfur
  Microbe count t24 h: 0
Malassezia furfur; t24 h
  Δlog: −2.60
[2]; 1.0% sample in 12% ethanol, 500 μl + 500 μl bacteria suspension, initial count 3.8 × 10^4, negative control 5.0 × 10^7
  Final microbe count: 2.9 × 10^4 CFU/ml
[2]; S. epidermidis
  Note: bacteriostatic or bactericidal action: bacteriostatic
P. acnes (ATCC 6919)
  OD20h, optical density of the bacteria suspension after 20 hours: 0.45
[3]
  OD20h, optical density of the bacteria suspension after 20 hours: 0.30
[4]
  Density: 1.0564 g/mL
  Dynamic viscosity (kinematic viscosity × density): 16.4 mPas
[4]; Ubbelohde viscometer
  Kinematic viscosity: 15.5 mm^2/s

Source: patent USRE46698E1, “Use of cyclohexanol derivatives as antimicrobial active compounds” (MERCK PATENT GMBH, priority 2011, dated 2018)
